For the test, the system named is human Peripheral Blood Mononuclear Cell (PMBC). Briefly: PBMC assay: cytokine (IFN-α) stimulation at 24 hours. The format is cell-based. The note with it: IFN-α in supernatant (Luminex), three fold above background; for minimal effective concentration: read-out: MEC = minimum concentration for induction of IFN-alpha = 3-fold over background. The method, then:
Assays were conducted to determine cytokine stimulation at 24 hours from human Peripheral Blood Mononuclear Cell (PMBC) using the compounds of the present invention. The assays were run in duplicate, with 8-point, half-log dilution curves. The compounds of the present invention were diluted from 10 mM DMSO solution. Cell supernatants are assayed directly for IFNα and 1:10 dilution for TNFα. The assays were performed in a similar fashion as described in Bioorg. Med. Chem. Lett. 16, 4559, (2006). Specifically, cryo-preserved PBMCs were thawed and seeded 96 well plates with 750,000 cells/well in 190 μL/well cell media. The PBMCs were then incubated for 1 hour at 37° C. at 5% CO2. Then, the compounds of the present invention were added in 10 μL cell media at 8 point, half-log dilution titration. The plates were incubated at 37° C. and 5% CO2 for 24 hours and then spinned at 1200 rpm for 10 min, which was followed by collecting supernatant and storing the same at −80° C. Cytokine secretion was assayed with Luminex® (brand of Multiplexing bead-based platform, Luminx® Corporation Austin Tex. USA) and Upstate Biosciences® (Upstate Biosciences®, Charlottesville, Va., USA) multi-plex kits, using a Luminex® analysis instrument. IFN MEC value for a compound was the minimum concentration at which IFN-α production stimulated by the compound reached three fold above background, as determined using the assay method above.

Read-outs that look alike come from different tables or passages of the source.

For the compound `COCCOc1nc(N)c2[nH]c(=O)n(Cc3cc(-c4cccc(CN5CCCC5)c4)ccc3Cl)c2n1` [AA], the minimal effective concentration (Homo sapiens, PBMC, 24 h) lay in the range of 0.1 to 1 µM. Regarding `COCCOc1nc(N)c2[nH]c(=O)n(Cc3cc(-c4ccc(CN5CCCC5)cc4)ccc3Cl)c2n1` [AB], the minimal effective concentration (Homo sapiens, PBMC, 24 h) is 0.1 to 1 µM. On the same count and under the same terms, next, `COCCOc1nc(N)c2[nH]c(=O)n(Cc3ccc(-c4ccc(CN5CCCC5)cn4)cc3)c2n1` [AC]: 0.001 µM; `COCCOc1nc(N)c2[nH]c(=O)n(Cc3ccc(-c4ccc(CN5CCCC5)nc4)cc3)c2n1` [AD]: 0.001 µM; `CCN1CCc2ncc(-c3ccc(Cn4c(=O)[nH]c5c(N)nc(OCCOC)nc54)cc3)cc2C1` [AE]: 0.001 µM.

For the compound `COCCOc1nc(N)c2[nH]c(=O)n(Cc3ccc(-c4ccc(CN5CCCC5)cc4)nc3)c2n1` [AF], the minimal effective concentration (Homo sapiens, PBMC, 24 h) was 0.001 µM. The same measure, in the same setting: next, `COCCOc1nc(N)c2[nH]c(=O)n(Cc3ccc(-c4cccc(CN5CCCC5)c4)nc3)c2n1` [AG]: 0.001 µM; `COCCOc1nc(N)c2[nH]c(=O)n(Cc3ccc(-c4ccc(CN5CCCC5)cc4)cc3Cl)c2n1` [AH]: 0.001 µM. As to `COCCOc1nc(N)c2[nH]c(=O)n(Cc3ccc(-c4ccc(CN5CCCC5)cc4)c(Cl)c3)c2n1` [AI], for the setting “Homo sapiens, PBMC, 24 h”, the minimal effective concentration stood at 0.001 µM. On the same count and under the same terms, next, `COCCOc1nc(N)c2[nH]c(=O)n(Cc3ccc(-c4ccc(CN5CCCC5)cc4)cc3F)c2n1` [AJ]: 0.001 µM.

With `COCCOc1nc(N)c2[nH]c(=O)n(Cc3ccc(-c4ccc(CN5CCCC5)cc4)cc3C#N)c2n1` [AK], the minimal effective concentration (Homo sapiens, PBMC, 24 h) is 0.001 µM. Take `COCCOc1nc(N)c2[nH]c(=O)n(Cc3ccc(-c4ccc(CN5CCCC5)cc4)c(F)c3)c2n1` [AL]: the minimal effective concentration (Homo sapiens, PBMC, 24 h) was 0.001 µM. In the case of `COCCOc1nc(N)c2[nH]c(=O)n(Cc3ccc(-c4cc(CN5CCCC5)cc(C(F)(F)F)c4)cc3)c2n1` [AM], the minimal effective concentration (Homo sapiens, PBMC, 24 h) is 0.01 to 0.099 µM. Regarding `COCCOc1nc(N)c2[nH]c(=O)n(Cc3ccc(-c4ccc(CN5CCCC5)cc4)c(C(F)(F)F)c3)c2n1` [AN], the minimal effective concentration (Homo sapiens, PBMC, 24 h) came to 0.001 µM. Turning to `COCCOc1nc(N)c2[nH]c(=O)n(Cc3ccc(-c4cccc(CN5CCCC5)c4)c(C(F)(F)F)c3)c2n1` [AO], the minimal effective concentration (Homo sapiens, PBMC, 24 h) came out at 0.001 µM. The same measure, in the same setting: next, `COCCOc1nc(N)c2[nH]c(=O)n(Cc3ccc(-c4ccc(CCCN5CCCC5)nc4)cc3)c2n1` [AP]: 0.001 µM. Same read-out and setting: next, `Nc1nc(OCC2CCOCC2)nc2c1[nH]c(=O)n2Cc1ccc(-c2cccc(CN3CCCC3)c2)cc1` [AQ]: 0.001 µM; `Nc1nc(OCC2CCOCC2)nc2c1[nH]c(=O)n2Cc1ccc(-c2ccc(CN3CCCC3)cc2)cc1` [AR]: 0.001 µM; `Nc1nc(OCC2CCOCC2)nc2c1[nH]c(=O)n2Cc1ccc(-c2ccc(CN3CCCC3)cc2)c(C(F)(F)F)c1` [AS]: 0.001 µM.

For `Nc1nc(OCC2CCOCC2)nc2c1[nH]c(=O)n2Cc1ccc(-c2cccc(CN3CCCC3)c2)c(C(F)(F)F)c1` [AT], where the note is “Homo sapiens, PBMC, 24 h”, the minimal effective concentration was 0.001 µM. Still for that read-out and setting: for `Nc1nc(OCC2CCOCC2)nc2c1[nH]c(=O)n2Cc1ccc(-c2ccc(CN3CCCC3)nc2)cc1` [AU] the value was 0.001 µM; for `Nc1nc(OCC2CCOCC2)nc2c1[nH]c(=O)n2Cc1ccc(-c2ccc(CN3CCCC3)cn2)cc1` [AV], 0.001 µM. For `COCCOc1cc2c([nH]c(=O)n2Cc2ccc(-c3cccc(CN4CCCC4)c3)cc2)c(N)n1` [AW], the minimal effective concentration was 0.001 to 0.009 µM. For the compound `COCCOc1nc(N)c2[nH]c(=O)n(Cc3ccc(-c4ccc(CN5CCCC5)cc4)cc3)c2n1` [AX], the “MEC = minimum concentration for induction of IFN-alpha = 3-fold over background” value is recorded as “b (b: 1 nM-9 nM)”. Consider `COCCOc1nc(N)c2[nH]c(=O)n(Cc3ccc(-c4ccc(CN5CCCC5)cc4)cc3)c2c1Cl` [AY], for which, under “Homo sapiens, PBMC, 24 h”, the minimal effective concentration is 0.01 to 0.099 µM. Turning to `Nc1nc(OCC2CCOCC2)cc2c1[nH]c(=O)n2Cc1ccc(-c2ccc(CN3CCCC3)cc2)cc1` [AZ], for the setting “Homo sapiens, PBMC, 24 h”, the minimal effective concentration amounted to 0.001 µM.

Turning to `CCCCOc1nc(N)c2[nH]c(=O)n(Cc3cccc(-c4ccccc4CN4CCCC4)c3)c2n1` [A], the minimal effective concentration (Homo sapiens, PBMC, 24 h) lay within 0.1 to 1 µM. For `Nc1nc(OCC2CCOCC2)cc2c1[nH]c(=O)n2Cc1ccc(-c2ccc(CN3CCCC3)nc2)cc1` [BA], the minimal effective concentration (Homo sapiens, PBMC, 24 h) was found to be 0.001 µM. In the case of `Nc1nc(OCC2CCOCC2)cc2c1[nH]c(=O)n2Cc1ccc(-c2csc(CN3CCCC3)n2)cc1` [BB], the minimal effective concentration (Homo sapiens, PBMC, 24 h) lay in the range of 0.001 to 0.009 µM. Still for that read-out and setting: next, `CCCCOc1cc2c([nH]c(=O)n2Cc2ccc(-c3ccc(CN4CCCC4)cc3)cc2)c(N)n1` [BC]: 0.001 µM; `Nc1nc(OCC2CCOCC2)cc2c1[nH]c(=O)n2Cc1ccc(-c2cccc(CN3CCCC3)c2)nc1` [BD]: 0.001 µM; `Nc1nc(OCC2CCOCC2)cc2c1[nH]c(=O)n2Cc1ccc(-c2ccc(CN3CCCC3)cc2)nc1` [BE]: 0.001 µM. The same measure, in the same setting: for `CCCCOc1cc2c([nH]c(=O)n2Cc2ccc(-c3cccc(CN4CCCC4)c3)nc2)c(N)n1` [BF] the value was 0.001 µM. On the same count and under the same terms, next, `CCCCOc1cc2c([nH]c(=O)n2Cc2ccc(-c3ccc(CN4CCCC4)cc3)nc2)c(N)n1` [BG]: 0.001 µM. Consider `CCCCOc1nc(N)c2[nH]c(=O)n(Cc3cccc(-c4cccc(CN5CCCC5)c4)c3)c2n1` [B], for which the minimal effective concentration (Homo sapiens, PBMC, 24 h) fell in the range of 0.01 to 0.099 µM. For the compound `CCCCOc1nc(N)c2[nH]c(=O)n(Cc3cccc(-c4ccc(CN5CCCC5)cc4)c3)c2n1` [C], under “Homo sapiens, PBMC, 24 h”, the minimal effective concentration was in the range of 0.001 to 0.009 µM. Still for that read-out and setting: next, `CCCCOc1nc(N)c2[nH]c(=O)n(Cc3ccc(-c4ccccc4CN4CCCC4)cc3)c2n1` [D]: 0.001 µM; `CCCCOc1nc(N)c2[nH]c(=O)n(Cc3ccc(-c4cccc(CN5CCCC5)c4)cc3)c2n1` [E]: 0.001 µM; `CCCCOc1nc(N)c2[nH]c(=O)n(Cc3cnc(-c4ccc(CN5CCCC5)cc4)s3)c2n1` [Example M]: 0.001 µM.

Take `CCCCOc1nc(N)c2[nH]c(=O)n(Cc3ccc(-c4ccc(CN5CCCC5)cc4)cc3)c2n1` [F]: under “Homo sapiens, PBMC, 24 h”, the minimal effective concentration was 0.001 µM. Still for that read-out and setting: next, `CCCCOc1nc(N)c2[nH]c(=O)n(Cc3ccc(-c4cccc(CN5CCCC5)c4)nc3)c2n1` [G]: 0.001 µM; `CCCCOc1nc(N)c2[nH]c(=O)n(Cc3ccc(-c4ccc(CN5CCCC5)cc4)nc3)c2n1` [H]: 0.001 µM; `CCCCOc1nc(N)c2[nH]c(=O)n(Cc3ccnc(-c4ccc(CN5CCCC5)cc4)c3)c2n1` [I]: 0.001 µM.

On to `CCCCOc1nc(N)c2[nH]c(=O)n(Cc3ccc(-c4ccc(CN5CCCC5)cc4)cn3)c2n1` [J], for which the minimal effective concentration (Homo sapiens, PBMC, 24 h) stood at 0.001 µM. On to `CCCCOc1nc(N)c2[nH]c(=O)n(Cc3ccc(-c4cccc(CN5CCCC5)c4)cn3)c2n1` [K], for which the minimal effective concentration (Homo sapiens, PBMC, 24 h) came out at 0.001 µM. On the same count and under the same terms, for `CCCCOc1nc(N)c2[nH]c(=O)n(Cc3cnc(-c4cccc(CN5CCCC5)c4)s3)c2n1` [L] the value was 0.001 µM. Take `CCCCOc1nc(N)c2[nH]c(=O)n(Cc3ccc(-c4ccc(CN5CCCC5)nc4)cc3)c2n1` [N]: the minimal effective concentration (Homo sapiens, PBMC, 24 h) is 0.001 µM. As to `CCCCOc1nc(N)c2[nH]c(=O)n(Cc3ccc(-c4ccc(CN5CCCC5)cn4)cc3)c2n1` [O], the minimal effective concentration (Homo sapiens, PBMC, 24 h) stood at 0.001 µM. On the same count and under the same terms, next, `CCCCOc1nc(N)c2[nH]c(=O)n(Cc3ccc(-c4nc(CN5CCCC5)cs4)cc3)c2n1` [P]: 0.001 µM; `CCCCOc1nc(N)c2[nH]c(=O)n(Cc3ccc(-c4ncc(CN5CCCC5)s4)cc3)c2n1` [Q]: 0.001 µM. `CCCCOc1nc(N)c2[nH]c(=O)n(Cc3ccc(-c4cc(CN5CCCC5)ccc4OC)cc3)c2n1` [R]: the minimal effective concentration (Homo sapiens, PBMC, 24 h) was 0.001 µM.

`CCCCOc1nc(N)c2[nH]c(=O)n(Cc3ccc(-c4ccc(CN5CCCC5)c(F)c4)cc3)c2n1` [S]: the minimal effective concentration (Homo sapiens, PBMC, 24 h) was found to be 0.001 µM. As to `COCCOc1nc(N)c2[nH]c(=O)n(Cc3ccc(-c4cccc(CN5CCCC5)c4)cc3)c2n1` [T], under “Homo sapiens, PBMC, 24 h”, the minimal effective concentration was determined as 0.001 µM. For the compound `COCCOc1nc(N)c2[nH]c(=O)n(Cc3ccc(-c4ccc(CN5CCCC5)cc4)cc3)c2n1` [U], the minimal effective concentration (Homo sapiens, PBMC, 24 h) amounted to 0.001 µM. The same measure, in the same setting: next, `COCCOc1nc(N)c2[nH]c(=O)n(Cc3ccc(-c4ccc(C(C)N5CCCC5)cc4)cc3)c2n1` (centres unmarked) [V]: 0.001 µM; `COCCOc1nc(N)c2[nH]c(=O)n(Cc3ccc(-c4cccc(CN5CCCCC5)c4)cc3)c2n1` [W]: 0.001 µM; `COCCOc1nc(N)c2[nH]c(=O)n(Cc3ccc(-c4ccc(CN5CCOCC5)cc4)cc3)c2n1` [X]: 0.001 µM. With `COCCOc1nc(N)c2[nH]c(=O)n(Cc3ccc(-c4cccc(CN5CCOCC5)c4)cc3)c2n1` [Y], the minimal effective concentration (Homo sapiens, PBMC, 24 h) lay in the range of 0.001 to 0.009 µM.

For the compound `COCCOc1nc(N)c2[nH]c(=O)n(Cc3ccc(-c4cccc(CN5CCN(C)CC5)c4)cc3)c2n1` [Z], the minimal effective concentration (Homo sapiens, PBMC, 24 h) turned out to be 0.001 µM.

The record behind these values is US8507507B2, “Modulators of toll-like receptors” (Gilead Sciences, Inc., priority 2009, dated 2013).
